In patent US8658638B2, “Mineralocorticoid receptor antagonist and methods of use” (priority 2009, dated 2014):

What was measured:
[1] = target: T1, human progesterone receptor (PR) (Homo sapiens, UniProt P06401); assay: Nuclear hormone receptor panel screen (luciferase reporter, HEK293), PR; format: cell-based
T1 construct: expressed in transfected cells; host or cells: HEK293
T1 sequence (P06401 1-933): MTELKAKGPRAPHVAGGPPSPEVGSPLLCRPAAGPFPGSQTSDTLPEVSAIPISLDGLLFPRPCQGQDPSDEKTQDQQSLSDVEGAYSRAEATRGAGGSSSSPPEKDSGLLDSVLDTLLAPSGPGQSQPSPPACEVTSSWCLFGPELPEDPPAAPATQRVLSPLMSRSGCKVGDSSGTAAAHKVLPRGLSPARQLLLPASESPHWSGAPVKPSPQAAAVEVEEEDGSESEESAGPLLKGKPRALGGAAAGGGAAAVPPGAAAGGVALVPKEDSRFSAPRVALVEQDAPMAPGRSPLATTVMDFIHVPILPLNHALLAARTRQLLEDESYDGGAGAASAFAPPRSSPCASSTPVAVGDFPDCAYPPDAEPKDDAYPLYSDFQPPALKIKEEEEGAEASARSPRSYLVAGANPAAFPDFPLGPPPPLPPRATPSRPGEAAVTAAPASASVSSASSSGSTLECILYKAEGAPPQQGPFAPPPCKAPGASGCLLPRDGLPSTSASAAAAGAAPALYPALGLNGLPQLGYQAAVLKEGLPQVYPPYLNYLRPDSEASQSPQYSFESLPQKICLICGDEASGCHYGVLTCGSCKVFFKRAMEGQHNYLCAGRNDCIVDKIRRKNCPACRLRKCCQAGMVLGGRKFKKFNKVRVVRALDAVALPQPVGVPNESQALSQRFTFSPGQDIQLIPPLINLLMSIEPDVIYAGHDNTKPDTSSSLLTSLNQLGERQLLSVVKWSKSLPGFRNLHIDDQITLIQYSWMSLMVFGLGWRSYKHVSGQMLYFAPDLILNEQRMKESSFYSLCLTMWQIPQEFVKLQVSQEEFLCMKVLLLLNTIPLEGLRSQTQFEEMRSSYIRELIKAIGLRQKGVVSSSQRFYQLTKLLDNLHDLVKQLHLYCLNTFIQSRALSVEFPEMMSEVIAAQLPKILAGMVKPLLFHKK
Text: Aldosterone exerts it physiological effects through interaction with the mineralocorticoid receptor. Following cytoplasmic binding of aldosterone to MR, the ligand receptor complex translocates to the cell nucleus where it binds to hormone response elements on DNA to initiate expression of target genes. […] The solvents, reagents, and ligands employed in the functional assay are readily available from commercial sources, or can be prepared by one of ordinary skill in the art.
Human embryonic kidney HEK293 cells are transfected with steroid hormone receptor and reporter gene plasmids using a suitable transfection reagent such as Fugene™. […] After 24 hours incubation with test compounds, cells are lysed and luciferase activity is determined using standard techniques.
Data are fitted to a four parameter-fit logistic curve to determine EC50 values. […] IC50 values are determined similarly using antagonist mode assay data. In the antagonist mode, percent inhibitions are determined by comparing test compound activity in the presence of low concentration of agonist (0.08 nM aldosterone for MR, 0.25 nM dexamethasone for GR, 0.66 nM of methyltrienolone for AR, and 0.08 nM of promegestone for PR) to the response produced by the same low concentration of agonist in the absence of test compound.

[2] = test system: uni-nephrectomized Sprague Dawley rats; assay: In vivo model of aldosterone mediated hypertension; conditions: orally once daily 1-30 mg/kg/day x 14 days, rat
Experimental: Male uni-nephrectomized Sprague Dawley rats (240-280 g) are housed individually with ad lib house water and rodent 5001 diet for one week. After acclimation, animals are implanted with Alzet pumps to subcutaneously deliver 0.25 μg/h of aldosterone at 2.5 μl/h for up to 28 days, and maintained on a diet containing 6% NaCl and drinking water containing 0.3% KCl throughout the duration of the study. Radiotelemetry devices are also implanted to monitor arterial blood pressure. For example, signals from each animal are sampled every 10 minutes throughout the study. The mean (±SEM) of all values collected over a twenty four hour period represent the mean daily arterial pressure for each animal.
On the day following pump implantation, test compound in a vehicle comprising 1% medium viscosity sodium carboxy methylcellulose/0.25% polysorbate 80/0.05% Antifoam 1510 ™, or vehicle alone, is then administered by once daily oral gavage (10 mL/kg).

With `O=c1[nH]c2cc(/C=C3\c4ccccc4COc4cc(F)ccc43)ccc2n1[C@@H]1C[C@@H]2COCCN2C1` [Compound (I), 5-((E)-(3-fluorodibenzo[b,e]oxepin-11(6H)-ylidene)methyl)-1-((7R,8aR)-hexahydro-1H-pyrrolo[2,1-c][1,4]oxazin-7-yl)-1H-benzo[d]imidazol-2(3H)-one] the EC50 ([1]; agonist mode) was > 10 µM, the IC50 ([1]; antagonist mode, 0.08 nM promegestone) was ~924 nM and the “effect on the hypertensive effects of aldosterone in the presence of salt compared to vehicle” value [2] was “dose dependently reduced the hypertensive effects of aldosterone”.
